± gives the standard deviation of the averaged measurements.

Compound in one assay: COc1cc(CCc2cc(NC(=O)c3ccc(N4CC(C)NC(C)C4)cc3)n[nH]2)cc(OC)c1 [AZD4547]
The assay can be described thus: surviving fraction relative to DMSO-only wells; higher = less growth inhibition. The note with it: exposure time: 5 days. In a few lines: (§1)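 Tumour cell lines were seeded in log phase at 250–500 cells per well into 384-well plates. Starting 24 hours later, inhibitors were present continuously for five days at 0.5, 1, 5, 10, 50, 100, 500 and 1000 nM. Surviving fraction, from CellTiter-Glo luminescence, is normalised to the median of DMSO-only wells. Three screens per line were required, with replicate Pearson r >0.7 and median Z' >0.3 for a line to be kept.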

Compound in a further assay: CN(Cc1cnc2nc(N)nc(N)c2n1)c1ccc(C(=O)N[C@@H](CCC(=O)O)C(=O)O)cc1 [METHOTREXATE]
Described as above. The note with it: exposure time: 5 days. The procedure, abridged:
as §1

For HCC1806 BREAST, the surviving fraction with AZD4547 (0.5 nM) worked out at 1.04 ± 0.14; with AZD4547 (1 nM), 1.08 ± 0.048; with AZD4547 (5 nM), 1.12 ± 0.063; with AZD4547 (10 nM), 1.14 ± 0.06; in the assay with AZD4547 (50 nM), 1.16 ± 0.11; in the assay with AZD4547 (100 nM), 1.13 ± 0.05. The surviving fraction was 0.996 ± 0.078 with AZD4547 (500 nM); 1 ± 0.17 in the assay with AZD4547 (1000 nM); 1.13 ± 0.11 in the assay with METHOTREXATE (0.5 nM); 1.11 ± 0.098 with METHOTREXATE (1 nM); 0.503 ± 0.063 in the assay with METHOTREXATE (5 nM); 0.445 ± 0.03 with METHOTREXATE (10 nM). Besides, the surviving fraction in the assay with METHOTREXATE (50 nM) came to 0.263 ± 0.01; with METHOTREXATE (100 nM), 0.227 ± 0.017; in the assay with METHOTREXATE (500 nM), 0.244 ± 0.0074; with METHOTREXATE (1000 nM) it was 0.254 ± 0.016.

As to HCC1954 BREAST, the surviving fraction amounted to 0.677 ± 0.04 with AZD4547 (0.5 nM); 0.711 ± 0.052 with AZD4547 (1 nM); 0.84 ± 0.087 in the assay with AZD4547 (5 nM); 1.01 ± 0.12 with AZD4547 (10 nM); 0.956 ± 0.023 in the assay with AZD4547 (50 nM); 0.887 ± 0.069 with AZD4547 (100 nM). Besides, the surviving fraction was found to be 1.0088 ± 0.00035 in the assay with AZD4547 (500 nM); 1 ± 0.1 with AZD4547 (1000 nM); 1.26 ± 0.04 in the assay with METHOTREXATE (0.5 nM); 1.16 ± 0.024 with METHOTREXATE (1 nM); 1.42 ± 0.14 with METHOTREXATE (5 nM); 1.3 ± 0.18 with METHOTREXATE (10 nM). The surviving fraction in the assay with METHOTREXATE (50 nM) stood at 1.17 ± 0.11; in the assay with METHOTREXATE (100 nM), 0.997 ± 0.16; in the assay with METHOTREXATE (500 nM), 1.09 ± 0.13; with METHOTREXATE (1000 nM) it was 0.849 ± 0.18.

In the case of HCT15 LARGE INTESTINE, the surviving fraction in the assay with AZD4547 (0.5 nM) came out at 1.03 ± 0.026; with AZD4547 (1 nM), 1.07 ± 0.029; with AZD4547 (5 nM), 1.03 ± 0.042; in the assay with AZD4547 (10 nM), 1.07 ± 0.048; in the assay with AZD4547 (50 nM), 1.03 ± 0.042; in the assay with AZD4547 (100 nM), 1.08 ± 0.033. Moreover, the surviving fraction is 1.1 ± 0.044 with AZD4547 (500 nM); 1.1 ± 0.041 with AZD4547 (1000 nM); 1.08 ± 0.046 with METHOTREXATE (0.5 nM); 1.05 ± 0.13 with METHOTREXATE (1 nM); 1.04 ± 0.13 with METHOTREXATE (5 nM); 0.749 ± 0.18 with METHOTREXATE (10 nM). Further, the surviving fraction was 0.138 ± 0.014 with METHOTREXATE (50 nM), 0.102 ± 0.017 with METHOTREXATE (100 nM), 0.137 ± 0.019 in the assay with METHOTREXATE (500 nM) and 0.134 ± 0.015 with METHOTREXATE (1000 nM).

For HELA CERVIX, the surviving fraction with AZD4547 (0.5 nM) was found to be 1.04 ± 0.023; with AZD4547 (1 nM), 1.09 ± 0.035; with AZD4547 (5 nM), 1.07 ± 0.036; with AZD4547 (10 nM), 1.1 ± 0.032; in the assay with AZD4547 (50 nM), 1.08 ± 0.013; with AZD4547 (100 nM) it was 1.07 ± 0.03. For the same test system, the surviving fraction amounted to 1.08 ± 0.092 in the assay with AZD4547 (500 nM); 1.11 ± 0.13 with AZD4547 (1000 nM); 1.06 ± 0.044 with METHOTREXATE (0.5 nM); 1.027 ± 0.0067 with METHOTREXATE (1 nM); 1.03 ± 0.039 with METHOTREXATE (5 nM); 1.02 ± 0.018 with METHOTREXATE (10 nM). Further, the surviving fraction in the assay with METHOTREXATE (50 nM) amounted to 0.712 ± 0.085; with METHOTREXATE (100 nM), 0.332 ± 0.018; in the assay with METHOTREXATE (500 nM), 0.282 ± 0.012; in the assay with METHOTREXATE (1000 nM) it was 0.288 ± 0.016.

On to HMLE3 BREAST, for which the surviving fraction with AZD4547 (0.5 nM) amounted to 0.986 ± 0.082; in the assay with AZD4547 (1 nM), 0.959 ± 0.04; with AZD4547 (5 nM), 0.882 ± 0.05; in the assay with AZD4547 (10 nM), 0.79 ± 0.025; with AZD4547 (50 nM), 0.57 ± 0.046; with AZD4547 (100 nM), 0.455 ± 0.053. In addition, the surviving fraction in the assay with AZD4547 (500 nM) is 0.418 ± 0.064; in the assay with AZD4547 (1000 nM), 0.379 ± 0.032; with METHOTREXATE (0.5 nM) it was 0.98 ± 0.057; with METHOTREXATE (1 nM), 1.03 ± 0.13; with METHOTREXATE (5 nM), 1.07 ± 0.046; in the assay with METHOTREXATE (10 nM), 0.985 ± 0.037. Also, the surviving fraction is 0.575 ± 0.051 with METHOTREXATE (50 nM), 0.639 ± 0.062 with METHOTREXATE (100 nM), 0.522 ± 0.026 with METHOTREXATE (500 nM) and 0.513 ± 0.037 with METHOTREXATE (1000 nM).

Source of the values: the supplement of paper PMC6045584.
